Data on four molecules can be found in ChEMBL document CHEMBL1629537, “Non-natural macrocyclic inhibitors of histone deacetylases: design, synthesis, and activity” (J Med Chem, 2010).

One assay has as its target T1, Histone deacetylase 7 (Homo sapiens, UniProt Q8WUI4).
T1 sequence (Q8WUI4 whole entry): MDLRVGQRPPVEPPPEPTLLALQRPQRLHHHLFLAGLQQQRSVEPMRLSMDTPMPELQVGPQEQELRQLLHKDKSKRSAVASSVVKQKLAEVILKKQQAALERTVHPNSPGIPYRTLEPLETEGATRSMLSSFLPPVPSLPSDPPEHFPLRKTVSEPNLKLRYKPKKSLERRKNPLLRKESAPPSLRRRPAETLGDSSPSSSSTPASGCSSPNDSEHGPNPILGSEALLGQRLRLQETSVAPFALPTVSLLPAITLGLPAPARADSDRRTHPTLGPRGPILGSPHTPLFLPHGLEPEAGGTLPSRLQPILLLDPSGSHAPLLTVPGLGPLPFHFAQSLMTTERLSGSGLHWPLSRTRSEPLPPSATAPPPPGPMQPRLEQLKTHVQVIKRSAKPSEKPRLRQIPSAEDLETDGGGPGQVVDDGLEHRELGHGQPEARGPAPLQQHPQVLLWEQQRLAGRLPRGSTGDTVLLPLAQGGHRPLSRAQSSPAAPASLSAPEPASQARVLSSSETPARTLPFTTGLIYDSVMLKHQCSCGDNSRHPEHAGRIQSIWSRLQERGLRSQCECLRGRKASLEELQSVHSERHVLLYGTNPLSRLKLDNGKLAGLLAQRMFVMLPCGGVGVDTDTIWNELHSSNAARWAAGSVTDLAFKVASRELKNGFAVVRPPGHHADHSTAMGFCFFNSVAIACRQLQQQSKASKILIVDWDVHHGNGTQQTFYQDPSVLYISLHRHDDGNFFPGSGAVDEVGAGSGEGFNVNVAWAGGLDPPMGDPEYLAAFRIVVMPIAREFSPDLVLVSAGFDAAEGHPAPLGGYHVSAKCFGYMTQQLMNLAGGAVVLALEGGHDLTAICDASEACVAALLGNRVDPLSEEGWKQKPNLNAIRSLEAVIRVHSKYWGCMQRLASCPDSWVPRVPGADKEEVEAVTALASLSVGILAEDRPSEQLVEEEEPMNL
Put plainly: Inhibition of human HDAC7 by fluorimetric assay.

Assay [1] has as its target T2, Polyamine deacetylase HDAC10 (Homo sapiens, UniProt Q969S8).
T2 sequence (Q969S8 whole entry): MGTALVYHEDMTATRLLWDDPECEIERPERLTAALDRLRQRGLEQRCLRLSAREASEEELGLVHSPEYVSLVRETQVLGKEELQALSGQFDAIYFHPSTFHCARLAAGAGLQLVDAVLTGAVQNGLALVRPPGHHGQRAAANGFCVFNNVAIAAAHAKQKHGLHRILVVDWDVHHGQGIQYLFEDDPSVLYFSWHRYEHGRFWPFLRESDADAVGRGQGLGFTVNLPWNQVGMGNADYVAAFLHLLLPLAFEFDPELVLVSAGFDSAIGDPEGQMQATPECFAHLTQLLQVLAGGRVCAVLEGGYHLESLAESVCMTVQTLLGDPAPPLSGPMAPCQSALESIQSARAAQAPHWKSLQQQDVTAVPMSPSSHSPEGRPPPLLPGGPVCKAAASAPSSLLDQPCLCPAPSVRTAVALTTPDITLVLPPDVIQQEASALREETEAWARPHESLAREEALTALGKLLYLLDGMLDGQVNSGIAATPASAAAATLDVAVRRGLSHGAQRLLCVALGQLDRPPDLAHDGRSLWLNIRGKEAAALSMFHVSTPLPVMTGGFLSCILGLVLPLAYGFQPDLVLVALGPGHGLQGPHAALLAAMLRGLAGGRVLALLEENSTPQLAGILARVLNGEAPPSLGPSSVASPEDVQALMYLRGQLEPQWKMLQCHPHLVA
Put plainly: Inhibition of human HDAC10 by fluorimetric assay.

A further assay concerns NCI-H460. Put plainly: cells. It is filed as functional, cell-based. As to conditions: Homo sapiens, NCI-H460, 48 h.

pIC50: −log10 of the molar value.

For the molecule `COc1cc2cc(c1)COc1ccccc1NC(=O)[C@H](CCCCCC(=O)NO)OC/C=C\2`, the pIC50 against Histone deacetylase 7 was 7.56; in assay [1] it was 7.20; with NCI-H460 it was 5.98.

As to `COc1cc2cc(c1)COc1ccccc1NC(=O)[C@@H](CCCCCC(=O)NO)OC/C=C\2`, the values for the negative-log IC50 (pIC50) (against Histone deacetylase 7; in assay [1]; with NCI-H460) were 6.74, 6.82 and 6.09, respectively.

For `O=C(CCCCCC1OCCCCCOc2ccccc2NC1=O)NO` (racemic), the figures for the pIC50 (against Histone deacetylase 7; in assay [1]; in the assay with NCI-H460) were 5.76, 5.82 and 5.70, respectively.

In the case of `COc1cc2cc(c1)COc1ccccc1NC(=O)C(CCCCCC(=O)NO)OC/C=C\2` (racemic), the negative-log IC50 (pIC50) against Histone deacetylase 7 is 7.14; in assay [1] it was 7.15; in the assay with NCI-H460, 6.06.

As usually defined, the pIC50 is the negative decadic logarithm of the IC50, by convention in mol/L. Low readings indicate a high IC50, high ones a low IC50.
